Data from patent US11028095B2, “Spiro-lactam and bis-spiro-lactam NMDA receptor modulators and uses thereof” (Aptinyx Inc., priority 2016, dated 2021).
pEC50: −log10 of the molar value. Read-outs that look alike come from different tables or passages of the source.

Assays:
[1] = target: T1, NMDAR2B expressing HEK cell membranes (Homo sapiens, UniProt Q13224); assay: NMDAR agonist assay, [3H]MK-801 binding, NMDAR2B; format: biochemical; details: 50 μM glutamate
T1 construct: expressed in transfected cells; host or cells: HEK cells (membrane extract)
T1 sequence (Q13224 27-1484, other chains not shown): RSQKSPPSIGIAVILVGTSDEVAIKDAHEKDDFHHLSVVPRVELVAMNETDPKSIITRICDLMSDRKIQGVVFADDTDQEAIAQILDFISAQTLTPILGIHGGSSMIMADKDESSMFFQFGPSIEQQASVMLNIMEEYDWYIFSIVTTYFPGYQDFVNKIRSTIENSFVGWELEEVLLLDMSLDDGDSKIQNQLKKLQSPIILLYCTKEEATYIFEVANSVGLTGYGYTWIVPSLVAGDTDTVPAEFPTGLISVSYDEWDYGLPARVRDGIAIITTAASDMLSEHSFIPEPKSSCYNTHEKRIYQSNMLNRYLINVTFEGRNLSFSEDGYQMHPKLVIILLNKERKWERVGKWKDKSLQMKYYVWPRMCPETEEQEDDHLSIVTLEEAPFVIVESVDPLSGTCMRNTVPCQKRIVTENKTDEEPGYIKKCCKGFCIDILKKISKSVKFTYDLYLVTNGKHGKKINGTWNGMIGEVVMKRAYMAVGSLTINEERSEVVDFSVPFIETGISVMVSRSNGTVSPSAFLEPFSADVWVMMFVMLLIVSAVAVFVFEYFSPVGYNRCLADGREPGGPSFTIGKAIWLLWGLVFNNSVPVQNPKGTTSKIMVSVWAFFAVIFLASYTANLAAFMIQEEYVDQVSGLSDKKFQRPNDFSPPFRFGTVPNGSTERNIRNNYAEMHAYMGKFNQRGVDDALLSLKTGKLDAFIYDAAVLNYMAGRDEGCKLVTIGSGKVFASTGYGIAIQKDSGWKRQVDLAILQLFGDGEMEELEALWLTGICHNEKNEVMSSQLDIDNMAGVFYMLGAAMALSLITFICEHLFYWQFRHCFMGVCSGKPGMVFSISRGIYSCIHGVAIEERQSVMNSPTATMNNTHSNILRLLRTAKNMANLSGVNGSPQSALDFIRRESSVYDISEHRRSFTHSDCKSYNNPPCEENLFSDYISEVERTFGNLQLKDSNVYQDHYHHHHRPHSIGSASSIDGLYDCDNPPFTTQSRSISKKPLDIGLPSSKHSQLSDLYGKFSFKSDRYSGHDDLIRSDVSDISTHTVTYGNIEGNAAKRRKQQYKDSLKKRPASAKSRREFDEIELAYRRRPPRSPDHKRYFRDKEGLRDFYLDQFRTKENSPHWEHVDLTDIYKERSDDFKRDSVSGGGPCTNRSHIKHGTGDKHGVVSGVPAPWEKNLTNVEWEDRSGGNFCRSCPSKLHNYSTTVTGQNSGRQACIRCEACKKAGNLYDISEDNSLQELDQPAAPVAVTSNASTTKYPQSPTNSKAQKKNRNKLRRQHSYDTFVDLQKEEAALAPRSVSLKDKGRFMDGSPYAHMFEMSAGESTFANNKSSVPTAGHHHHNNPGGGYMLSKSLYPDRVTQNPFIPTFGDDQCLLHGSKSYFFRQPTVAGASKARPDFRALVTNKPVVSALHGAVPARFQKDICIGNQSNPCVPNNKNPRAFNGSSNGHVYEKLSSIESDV
Procedure: (§1) (nonequilibrium conditions).
(§2) The baseline value was determined from the best fit curve of the DPM values modeled using the GraphPad program and the log(agonist) vs. response(three parameters) algorithm was then subtracted from all points in the dataset.

Plasma stability (Human) = format: in vitro ADME
Procedure: (§3) Plasma stability of disclosed compounds was investigated. The following table indicates the percent of compound remaining after 60 minutes.

[2] = target: T2, NMDAR2A expressing HEK cell membranes (Homo sapiens, UniProt Q12879); assay: NMDAR agonist assay, [3H]MK-801 binding, NMDAR2A; format: biochemical; details: 50 μM glutamate
T2 construct: expressed in transfected cells; host or cells: HEK cells (membrane extract)
T2 sequence (Q12879 23-1464, other chains not shown): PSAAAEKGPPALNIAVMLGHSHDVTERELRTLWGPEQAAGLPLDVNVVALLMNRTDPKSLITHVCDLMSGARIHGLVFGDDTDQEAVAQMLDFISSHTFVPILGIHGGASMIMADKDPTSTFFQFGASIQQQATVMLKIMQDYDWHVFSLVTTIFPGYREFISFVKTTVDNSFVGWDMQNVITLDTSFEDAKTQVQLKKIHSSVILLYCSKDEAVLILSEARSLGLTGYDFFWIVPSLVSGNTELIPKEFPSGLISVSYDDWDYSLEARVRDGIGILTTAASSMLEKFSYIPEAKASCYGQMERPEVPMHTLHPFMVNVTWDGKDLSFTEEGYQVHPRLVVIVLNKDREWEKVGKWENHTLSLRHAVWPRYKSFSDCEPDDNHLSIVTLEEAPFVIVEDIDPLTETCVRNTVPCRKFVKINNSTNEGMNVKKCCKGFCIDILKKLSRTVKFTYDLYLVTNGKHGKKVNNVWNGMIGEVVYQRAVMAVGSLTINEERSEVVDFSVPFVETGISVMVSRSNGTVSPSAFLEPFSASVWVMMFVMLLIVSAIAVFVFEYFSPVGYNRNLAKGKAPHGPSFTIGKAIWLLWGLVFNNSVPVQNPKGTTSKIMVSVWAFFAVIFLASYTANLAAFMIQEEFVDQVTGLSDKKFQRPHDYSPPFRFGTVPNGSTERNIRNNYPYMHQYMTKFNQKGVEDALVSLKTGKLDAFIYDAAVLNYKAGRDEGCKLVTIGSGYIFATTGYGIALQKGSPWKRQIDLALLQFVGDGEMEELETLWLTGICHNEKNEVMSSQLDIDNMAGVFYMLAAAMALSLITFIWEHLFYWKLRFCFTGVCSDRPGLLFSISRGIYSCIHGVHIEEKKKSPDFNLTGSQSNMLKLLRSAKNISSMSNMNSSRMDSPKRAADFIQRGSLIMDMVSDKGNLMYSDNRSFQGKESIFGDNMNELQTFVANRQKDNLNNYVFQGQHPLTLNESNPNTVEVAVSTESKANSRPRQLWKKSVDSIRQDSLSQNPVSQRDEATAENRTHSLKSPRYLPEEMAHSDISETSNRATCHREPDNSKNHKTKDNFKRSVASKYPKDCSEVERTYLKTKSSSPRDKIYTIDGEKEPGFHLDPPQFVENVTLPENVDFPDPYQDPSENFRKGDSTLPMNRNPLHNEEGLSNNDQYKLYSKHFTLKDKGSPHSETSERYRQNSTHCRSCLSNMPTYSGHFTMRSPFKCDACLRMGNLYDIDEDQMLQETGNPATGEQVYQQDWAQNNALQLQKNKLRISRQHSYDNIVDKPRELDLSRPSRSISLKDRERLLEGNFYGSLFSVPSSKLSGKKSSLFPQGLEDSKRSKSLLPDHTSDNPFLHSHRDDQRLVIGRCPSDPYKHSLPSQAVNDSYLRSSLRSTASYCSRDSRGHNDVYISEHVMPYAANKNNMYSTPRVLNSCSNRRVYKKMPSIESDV
Procedure: as §1, §2

[3] = Microsomal stability (Human); format: in vitro ADME; details: human microsomes
Procedure: (§4) Microsomal stability of disclosed compounds was investigated. The following table indicates the percent of compound remaining after 60 minutes.

[4] = target: T3, NMDAR2D expressing HEK cell membranes (Homo sapiens, UniProt O15399); assay: NMDAR agonist assay, [3H]MK-801 binding, NMDAR2D; format: biochemical; details: 50 μM glutamate; relative to 1 mM glycine
T3 construct: expressed in transfected cells; host or cells: HEK cells (membrane extract)
T3 sequence (O15399 28-1336, other chains not shown): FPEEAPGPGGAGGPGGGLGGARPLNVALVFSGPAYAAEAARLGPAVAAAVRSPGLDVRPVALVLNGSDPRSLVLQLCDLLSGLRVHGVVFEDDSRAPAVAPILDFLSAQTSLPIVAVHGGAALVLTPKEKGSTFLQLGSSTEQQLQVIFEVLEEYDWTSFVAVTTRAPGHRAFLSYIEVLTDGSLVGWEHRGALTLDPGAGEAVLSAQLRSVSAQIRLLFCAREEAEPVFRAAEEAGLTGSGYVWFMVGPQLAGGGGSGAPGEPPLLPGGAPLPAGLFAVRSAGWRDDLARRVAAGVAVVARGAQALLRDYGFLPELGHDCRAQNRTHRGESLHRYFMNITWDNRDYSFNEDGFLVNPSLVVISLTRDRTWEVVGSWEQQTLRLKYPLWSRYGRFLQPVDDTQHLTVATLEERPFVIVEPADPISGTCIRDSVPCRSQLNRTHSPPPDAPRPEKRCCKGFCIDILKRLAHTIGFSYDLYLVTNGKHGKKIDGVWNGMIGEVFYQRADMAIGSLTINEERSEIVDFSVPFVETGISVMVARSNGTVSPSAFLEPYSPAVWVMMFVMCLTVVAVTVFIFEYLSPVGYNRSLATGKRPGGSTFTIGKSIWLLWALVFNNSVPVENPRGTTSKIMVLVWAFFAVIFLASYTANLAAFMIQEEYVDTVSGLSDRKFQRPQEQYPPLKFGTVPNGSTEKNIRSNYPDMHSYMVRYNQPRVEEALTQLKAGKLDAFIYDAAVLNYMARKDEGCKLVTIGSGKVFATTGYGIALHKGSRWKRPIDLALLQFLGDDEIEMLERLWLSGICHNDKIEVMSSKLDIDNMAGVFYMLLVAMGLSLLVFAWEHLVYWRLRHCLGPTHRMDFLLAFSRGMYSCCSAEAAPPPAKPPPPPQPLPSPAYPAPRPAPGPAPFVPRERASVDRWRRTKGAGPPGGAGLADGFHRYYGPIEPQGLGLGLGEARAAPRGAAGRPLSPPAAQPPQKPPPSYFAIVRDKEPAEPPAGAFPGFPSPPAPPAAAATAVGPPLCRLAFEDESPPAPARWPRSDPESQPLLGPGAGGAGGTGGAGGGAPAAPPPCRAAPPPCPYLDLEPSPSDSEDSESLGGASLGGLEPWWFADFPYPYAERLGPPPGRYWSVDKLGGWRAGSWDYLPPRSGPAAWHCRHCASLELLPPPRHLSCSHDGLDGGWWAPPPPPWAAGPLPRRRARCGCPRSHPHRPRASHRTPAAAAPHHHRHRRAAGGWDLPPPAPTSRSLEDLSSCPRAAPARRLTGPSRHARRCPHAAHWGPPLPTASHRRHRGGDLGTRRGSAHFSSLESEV
Procedure: as §1, §2

[5] = Microsomal stability (Rat); format: in vitro ADME; details: rat microsomes
Procedure: as §4

[6] = tested on: positive (hedonic) 50-kHz ultrasonic vocalizations (USVs); assay: Positive Emotional Learning (PEL) test; format: in vivo; details: rat, PO, one hour after administration
Procedure: Experiments were conducted as described in Burgdorf et al., “The effect of selective breeding for differential rates of 50-kHz ultrasonic vocalizations on emotional behavior in rats,” Devel. […] Rat 50-kHz ultrasonic vocalization (hedonic USVs) is a validated model for the study of positive affective state and is best elicited by rough-and-tumble play.
The PEL assay measures the acquisition of positive (hedonic) 50-kHz ultrasonic vocalizations (USVs) to a social stimulus, heterospecific rough and tumble play stimulation. Heterospecific rough-and-tumble play stimulation was administered by the experimenter's right hand. One hour after administration of test compound or vehicle negative control (0.5% sodium carboxymethyl cellulose in 0.9% sterile saline vehicle), animals received 3 min of heterospecific rough-and-tumble play that consisted of alternating 15 sec blocks of heterospecific play and 15 sec of no-stimulation. […] Frequency modulated 50-kHz USVs that occurred during each of the no-stimulation periods were quantified to measure PEL. Animals were not habituated to play stimulation before testing. Positive emotional learning was measured during the conditioned stimulus (CS) trials preceding the tickle unconditioned stimulus (UCS) trials. Animals received 15 second trials consisting of 6 CS and 6 UCS trials each (3 min total).

[7] = target: T4, NMDAR2C expressing HEK cell membranes (Homo sapiens, UniProt Q05586+Q14957); assay: NMDAR agonist assay, [3H]MK-801 binding, NMDAR2C; format: biochemical
T4 construct: expressed in transfected cells; host or cells: HEK cells (membrane extract)
Procedure: as §1, §2

Plasma stability (Rat) = format: in vitro ADME
Procedure: as §3

[8] = target: T5, NMDAR2B expressing HEK cell membranes (Homo sapiens, UniProt Q05586+Q13224); assay: NMDAR agonist assay, [3H]MK-801 binding, NMDAR2B; format: biochemical; details: [3H]MK-801 binding
T5 construct: expressed in transfected cells; host or cells: HEK cells (membrane extract)
Procedure: as §1, §2

IV pharmacokinetics = format: in vivo; details: rat, in vivo, 2 mg/kg, Sprague Dawley rats, normal saline; for C0: read-out: C0; for Vd: read-out: Vss
Procedure: Sprague Dawley rats were dosed intravenously using a normal saline formulation containing 2 mg/kg of the compounds identified in the below table. The table below summarizes the results of the IV pharmacokinetics.

[9] = target: T6, NMDAR2D expressing HEK cell membranes (Homo sapiens, UniProt O15399+Q05586); assay: NMDAR agonist assay, [3H]MK-801 binding, NMDAR2D; format: biochemical; details: for Emax: read-out: NMDAR2D: % maximal [3H]MK-801 binding relative to 1 mM glycine
T6 construct: expressed in transfected cells; host or cells: HEK cells (membrane extract)
T6 sequence (O15399 28-1336, other chains not shown): as above
Procedure: as §1, §2

[10] = Oral pharmacokinetics (plasma, brain, CSF); format: in vivo; details: Sprague Dawley rats, per os, 10 mg/kg; for AUC(0-t) / bioavailability / Tmax / Cmax: rat, plasma, po; for Tmax: normal saline, read-out: Tmax; for Cmax: read-out: Cmax
Procedure: In another experiment, Sprague Dawley rats were dosed per os using a normal saline formulation containing 10 mg/kg of the compounds identified in the table below. Plasma, brain, and CSF samples were analyzed at various time points over a 24 hour period. The table below summarizes the results of the oral pharmacokinetics.

[11] = target: T7, NMDAR2A expressing HEK cell membranes (Homo sapiens, UniProt Q05586+Q12879); assay: NMDAR agonist assay, [3H]MK-801 binding, NMDAR2A; format: biochemical; details: NMDAR2A: log EC50, 50 μM glutamate; [3H]MK-801 binding
T7 construct: expressed in transfected cells; host or cells: HEK cells (membrane extract)
Procedure: as §1, §2

[12] = tested on: Sciatic nerve chronic constriction nerve injury; assay: Bennett nerve injury assay (mechanical analgesia, paw withdrawal threshold); format: in vivo, Sprague Dawley rats; details: 150 mg/kg PO
Procedure: The Bennett model of mechanical analgesia is used to assess the analgesic effects of compounds as measured by paw withdrawal threshold. Bennett G J, Xie Y K, “A peripheral mononeuropathy in rat that produces disorders of pain sensation like those seen in man,” Pain 33:87-107, 1988. […] Vehicle animals receive the surgery and then receive vehicle rather than test compound. Animals were tested 1 hr, 24 h and 1 wk post-test compound or vehicle administration.
Male 2-3 month old Sprague Dawley rats were used. Harlan was the supplier for all studies. Rats were housed in Lucite cages with aspen wood chip bedding, maintained on a 12:12 light:dark cycle (lights on at 5 AM), and given ad libitum access to Purina lab chow (USA) and tap water throughout the study.
Rats were anesthetized using inhaled isoflurane (2.5%). Sciatic nerve chronic constriction nerve injury surgery was performed as previously described (Bennett and Xie, 1988). An incision (˜1.5 cm in length) was made with a scalpel blade dorsally through skin on the right hind limb, parallel and posterior to femur. Using a small pointed hemostat, the biceps femoris and gluteus superficialis muscles were separated. Using curved blunt forceps, the common sciatic nerve was isolated and exposed. For the mechanical analgesia studies, the whole sciatic nerve was ligated. Using hemostats/forceps and chromic gut (5-0), the nerve was loosely ligated with a square knot; 3 ligatures, 1 mm apart were placed on the nerve. […] Testing occurred approximately 2 weeks post-surgery.
During testing, rats were acclimated to the surface of a suspended wire mesh grid (1 cm×1 cm, with the wire being 0.3 cm in diameter) for 15-20 min Starting from the smallest, each Von Frey filament was pressed perpendicularly to the plantar surface of the affected (ipsilateral) hind paw until slightly bent and then held for 6 second. If an obvious hind paw withdrawal or a flinching behavior immediately after the withdrawal of the filament was not observed, the next larger filament was used in the same manner. In case of a response, a lower filament was used. This was repeated until six responses were collected.
For all studies, animals were baselined prior to study start to test for allodynia (defined as a paw withdrawal threshold under 5). A subset of animals was tested with gabapentin (150 mg/kg, PO) to ensure at least 50% analgesia. Once it was confirmed animals were ready for study initiation, animals were balanced across groups. All study investigators were blind to treatment conditions. Animals were dosed with 0.1, 1 or 10 mg/kg of test compound via oral gavage (PO), control sets of animals were dosed with gabapentin (150 mg/kg, PO) or vehicle (0.5% Na-CMC in 0.9% sterile saline, PO). Testing occurred 1 h post-dosing with animals retested 24 hrs and 1 week post-dosing. The percent analgesia calculations for each animal were made using the following equation: % analgesia=[(log(x)−y)/((log (z)−y)]*100, where x=the paw withdrawal threshold for the drug-treated animal in grams, y=the average of the log(x) values for the vehicle treated group, and z=the paw withdrawal threshold for naïve animals in grams (historical value of 15 used). The results for Compound AD, where the percentage of analgesia is measured at 1 hour, 24 hours, and 1 week after compound administration are as follows: for 0.1 mg/kg dose: 37.8% at 1 h, 29.7% at 24 h, and 63.1% at 1 wk; for 1 mg/kg dose: 48.8% at 1 h, 20.6% at 24 h, and 19.8% at 1 wk; and for 10 mg/kg dose: 70.3% at 1 h, 38.8% at 24 h, and 11.3% at 1 wk.

[13] = 50 μM glutamate, relative to 1 mM glycine, read-out: NMDAR2C A: % maximal [3H]MK-801 binding relative to 1 mM glycine

O=C1NCC12CCC1(CNC1=O)N2Cc1ccccc1 (single isomer, unassigned) [AC-1, 5-benzyl-2,5,8-triazadispiro[3.1.36.24]undecane-1,7-dione]
EC50 ([1]; [3H]MK-801 binding, read-out: NMDAR2B log EC50 (converted)): < 1 nM
NMDAR2B: % maximal [3H]MK-801 binding relative to 1 mM glycine [1]: + (<100%=+)
Plasma (Human): percent of compound remaining after 60 minutes (Plasma stability (Human)): 100%
NMDAR2A: % maximal [3H]MK-801 binding relative to 1 mM glycine [2]: + (<100%=+)
Microsomal (Human): percent of compound remaining after 60 minutes [3]: 95%
NMDAR2D: % maximal [3H]MK-801 binding relative to 1 mM glycine [4]: + (<100%=+)
Microsomal (Rat): percent of compound remaining after 60 minutes [5]: 100%
Max Effect (mean number of 50 kHz USVs per 15 seconds) ([6]; dose 0.001-1 mg/kg): * (*: 6-10.9)
Emax [7, 13]: < 100%
Plasma (Rat): percent of compound remaining after 60 minutes (Plasma stability (Rat)): 100%

CC(C)C(=O)N1C2(CCC13CNC3=O)CNC2=O (single isomer, unassigned) [AH, 5-isobutyryl-2,5,8-triazadispiro[3.1.36.24]undecane-1,7-dione]
NMDAR2B: % maximal [3H]MK-801 binding relative to 1 mM glycine [1]: + (<100%=+)
EC50 ([8]; 50 μM glutamate, read-out: NMDAR2B log EC50 (converted)): < 1 nM
Plasma (Human): percent of compound remaining after 60 minutes (Plasma stability (Human)): 95%
EC50 ([2]; [3H]MK-801 binding, read-out: NMDAR2A: log EC50 (converted)): < 1 nM
NMDAR2A: % maximal [3H]MK-801 binding relative to 1 mM glycine [2]: + (<100%=+)
Microsomal (Human): percent of compound remaining after 60 minutes [3]: 100%
AUC(0-t) (IV pharmacokinetics; Sprague Dawley, iv): 3020 ng·h/mL
clearance (IV pharmacokinetics; Sprague Dawley, iv): 10.9 mL/min/kg
half-life (IV pharmacokinetics; Sprague Dawley, iv): 3.68 h
C0 (IV pharmacokinetics; Sprague Dawley, iv): 3870 ng/mL
Vd (IV pharmacokinetics; Sprague Dawley, iv): 1.1 L/kg
EC50 ([9]; 50 μM glutamate, [3H]MK-801 binding, read-out: NMDAR2D: log EC50 (converted)): < 1 nM
Emax ([9]; 50 μM glutamate, relative to 1 mM glycine): < 100%
Microsomal (Rat): percent of compound remaining after 60 minutes [5]: 100%
Max Effect (mean number of 50 kHz USVs per 15 seconds) ([6]; dose 0.1 mg/kg): ** (**: 11-16.9)
CSF Cmax [10]: 123 ng/mL
Brain Cmax [10]: 45.8 ng/mL
AUC(0-t) ([10]; Sprague Dawley): 2570 ng·h/mL
bioavailability ([10]; Sprague Dawley): 17%
Tmax ([10]; Sprague Dawley): 1.67 h
Cmax ([10]; Sprague Dawley): 655 ng/mL
EC50 ([7]; 50 μM glutamate, [3H]MK-801 binding, read-out: NMDAR2C: log EC50 (converted)): < 1 nM
Emax [7, 13]: < 100%
Plasma (Rat): percent of compound remaining after 60 minutes (Plasma stability (Rat)): 100%

O=C1NCC12CCC1(CNC1=O)N2 (single isomer, unassigned) [AJ, 2,5,8-triazadispiro[3.1.36.24]undecane-1,7-dione]
NMDAR2B: % maximal [3H]MK-801 binding relative to 1 mM glycine [1]: + (<100%=+)
pEC50 ([8]; NMDAR2B: log EC50, 50 μM glutamate): > 9.00
Plasma (Human): percent of compound remaining after 60 minutes (Plasma stability (Human)): 90%
pEC50 [11]: > 9.00
NMDAR2A: % maximal [3H]MK-801 binding relative to 1 mM glycine [2]: + (<100%=+)
Microsomal (Human): percent of compound remaining after 60 minutes [3]: 100%
AUC(0-t) (IV pharmacokinetics): 2090 ng·h/mL
clearance (IV pharmacokinetics): 15.4 mL/min/kg
half-life (IV pharmacokinetics): 0.44 h
C0 (IV pharmacokinetics): 4860 ng/mL
Vd (IV pharmacokinetics): 0.47 L/kg
pEC50 ([9]; NMDAR2D: log EC50, 50 μM glutamate, [3H]MK-801 binding): > 9.00
Emax [9]: < 100%
Microsomal (Rat): percent of compound remaining after 60 minutes [5]: 100%
Max Effect (mean number of 50 kHz USVs per 15 seconds) ([6]; dose 0.1 mg/kg): ** (**: 11-16.9)
CSF Cmax [10]: 71.9 ng/mL
Brain Cmax [10]: 0 ng/mL
AUC(0-t) [10]: 2060 ng·h/mL
bioavailability [10]: 20%
Tmax [10]: 0.5 h
Cmax [10]: 1160 ng/mL
pEC50 ([7]; NMDAR2C: log EC50, 50 μM glutamate, [3H]MK-801 binding): > 9.00
Emax ([7]; read-out: NMDAR2C: % maximal [3H]MK-801 binding relative to 1 mM glycine): < 100%
Plasma (Rat): percent of compound remaining after 60 minutes (Plasma stability (Rat)): 68%

NCC1(CC(=O)O)CCCCC1 [gabapentin, reference compound]
analgesia, control group of the study ([12]; 1 week post-administration): under 5%
percentage of analgesia, example (typical) control value ([12]; 1 wk): 0%
percentage of analgesia, example (typical) control value ([12]; 1 h): 72%
analgesia, control group of the study ([12]; 1 h post-administration): at least 50%
percentage of analgesia, example (typical) control value ([12]; 24 h): 16%
analgesia, control group of the study ([12]; 24 h post-administration): under 5%
